The results in this text go back to publication PMC3029310 (Journal of Insect Science, 2010).

This assay relates to T1, AChE.
T1 construct: gene ace1; native; newly emerged adult males for these rows
Kind of assay: Ellman assay (DTNB, […] nm), […] substrate concentrations […]. In kind it is biochemical, Blattella germanica. As to conditions: newly emerged adult males; pH 7.5; 30 °C. (Ellman's reagent forms a yellow product with free thiols.)

Structures are written as SMILES.

For orientation: Km means the substrate concentration at which the rate is half of its maximum. On to `CC(=O)SCC[N+](C)(C)C` [Acetylthiocholine iodide], for which the Km came to 340 ± 49 µM.
